This test relates to SYO-1 tumor spheroids, viability % test/control. The test is described as follows: Anticancer human tumor SYO-1 cell line growth inhibition.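 As to all read-outs here: spheroids exposed to agents for 7 days before viability read.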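 As to viability, T/C: 100% = DMSO vehicle control.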 The note with it: spheroids with HUVEC and MSC; for viability, T/C: stronger effect = lower value. In short, it runs like this: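 Complex tumor spheroids combined malignant cells with endothelial cells and mesenchymal stem cells. DNA-damaging drugs and DNA repair inhibitors were tested alone and in combination, at half-log dilutions down from clinical Cmax (top 10 microM if Cmax unknown), 0.25% DMSO final.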

[1] abbreviates: curve of first compound, second compound 0.003 µM.
The mark [2] stands for this setting: second compound 0.003 µM, first compound 0.00949 µM.
Setting [3] is: second compound 0.003 µM, first compound 0.03 µM.
Where [4] appears, read: second compound 0.003 µM, first compound 0.0949 µM.
Setting [5] is: second compound 0.003 µM, first compound 0.3 µM.
Where [6] appears, read: second compound 0.003 µM, first compound 0.949 µM.
Setting [7] is: second compound 0.003 µM, first compound 3 µM.

Where “and” joins values, the source holds several entries; their conditions need not be identical. Equal values may be shown once.

Broadly, the IC50 is the concentration that inhibits the measured activity by half. As usually defined, the viability, T/C is the ratio of treated to control. For the compound `CNCc1ccc(-c2cc(-c3nc(-c4ccc(S(=O)(=O)C(C)C)cc4)cnc3N)on2)cc1` + COc1cc2c(cc1O)CCNC21CSC2c3c(OC(C)=O)c(C)c4c(c3C(COC1=O)N1C(O)C3Cc5cc(C)c(OC)c(O)c5C(C21)N3C)OCO4, the IC50 reads like this: (curve of first compound, second compound 30 pM) 134 nM; (curve of first compound, second compound 94.9 pM) 49.1 nM; (curve of first compound, second compound 0.0003 µM) below 9.49 nM; (curve of first compound, second compound 0.000949 µM) below 9.49 nM; under setting [1], below 9.49 nM. Also, the viability, T/C (second compound 30 pM, first compound 0.00949 µM) was 100%; the viability, T/C (second compound 30 pM, first compound 0.03 µM) is 94.2%; the viability, T/C (second compound 30 pM, first compound 0.0949 µM) is 70.5%; the viability, T/C (second compound 30 pM, first compound 0.3 µM) was 2.18%; the viability, T/C (second compound 30 pM, first compound 0.949 µM) is 0.23%; the viability, T/C (second compound 30 pM, first compound 3 µM) was 0.08%. For the same compound, the viability, T/C is, setting by setting: (second compound 94.9 pM, first compound 0.00949 µM) 98.6%; (second compound 94.9 pM, first compound 0.03 µM) 84%; (second compound 94.9 pM, first compound 0.0949 µM) 4.65%; (second compound 94.9 pM, first compound 0.3 µM) 1.24%; (second compound 94.9 pM, first compound 0.949 µM) 0.12%; (second compound 94.9 pM, first compound 3 µM) 0.07%. Moreover, the viability, T/C runs as follows: (second compound 0.0003 µM, first compound 0.00949 µM) 11.1%; (second compound 0.0003 µM, first compound 0.03 µM) 3.94%; (second compound 0.0003 µM, first compound 0.0949 µM) 2.02%; (second compound 0.0003 µM, first compound 0.3 µM) 0.82%; (second compound 0.0003 µM, first compound 0.949 µM) 0.12%; (second compound 0.0003 µM, first compound 3 µM) 0.09%. In addition, the viability, T/C runs as follows: (second compound 0.000949 µM, first compound 0.00949 µM) 1.37%; (second compound 0.000949 µM, first compound 0.03 µM) 1.54%; (second compound 0.000949 µM, first compound 0.0949 µM) 1.43%; (second compound 0.000949 µM, first compound 0.3 µM) 0.42%; (second compound 0.000949 µM, first compound 0.949 µM) 0.09%; (second compound 0.000949 µM, first compound 3 µM) 0.1%. The viability, T/C by setting is: under setting [2], 0.12%; under setting [3], 0.12%; under setting [4], 0.1%; under setting [5], 0.11%; under setting [6], 0.19%; under setting [7], 0.18%.

`Cc1cc(C)c(CNC(=O)c2cc(-c3ccc(CN4CCOCC4)cc3)cc3c2cnn3C2CCCC2)c(=O)[nH]1`: the viability, T/C is 106% and 109% and 103% (compound 0.0316 µM); 106% and 109% and 100% (compound 0.1 µM); 108% and 97.8% and 99.2% (compound 0.316 µM); 107% and 104% and 103% (compound 1 µM); 112% and 104% (2×) (compound 3.16 µM); 106% and 67% and 88.7% (compound 10 µM). Further, under “curve of compound”, the IC50 is above 10000 nM.

With `COc1ccc([C@@H](O)c2cc(-c3ncnc4cc(N5CCOCC5)ccc34)c(F)cc2Cl)nn1`, the viability, T/C was 109% and 108% and 104% (compound 0.0316 µM); 108% and 107% and 101% (compound 0.1 µM); 104% and 106% and 103% (compound 0.316 µM); 105% and 101% and 102% (compound 1 µM); 66.1% (2×) and 84.2% (compound 3.16 µM); 7.28% and 14.2% and 20.4% (compound 10 µM). For the same compound, the IC50 (curve of compound) was 4310 nM and 4520 nM and 5860 nM.

For `Cn1ncnc1[C@H]1c2n[nH]c(=O)c3cc(F)cc(c23)N[C@@H]1c1ccc(F)cc1`, the viability, T/C (compound 0.00949 µM) was 81.1% and 79.7% and 87.3%; the viability, T/C (compound 0.03 µM) was 29.5% and 23.3% and 18.3%; the viability, T/C (compound 0.0949 µM) was 4.75% and 5.28% and 5.09%; the viability, T/C (compound 0.3 µM) was 2.61% and 2.85% and 2.82%; the viability, T/C (compound 0.949 µM) is 1.54% and 2.38% and 1.48%; the viability, T/C (compound 3 µM) is 1.36% and 1.92% and 1.26%. In addition, the IC50 (curve of compound) was 19 nM and 17.4 nM and 17.7 nM.

Turning to `Cc1sc2c(c1C)C(c1ccc(Cl)cc1)=NC(CC(=O)Nc1ccc(O)cc1)c1nnc(C)n1-2` (stereo unspecified) + CC[C@@]1(O)C(=O)OCc2c1cc1n(c2=O)Cc2cc3c(CN(C)C)c(O)ccc3nc2-1, the IC50 is, setting by setting: under setting [1], 43.4 nM; (curve of first compound, second compound 0.00949 µM) below 9.49 nM; (curve of first compound, second compound 0.03 µM) below 9.49 nM; (curve of first compound, second compound 0.0949 µM) below 9.49 nM; (curve of first compound, second compound 0.3 µM) below 9.49 nM. In addition, the viability, T/C is, setting by setting: under setting [2], 84.9%; under setting [3], 70.3%; under setting [4], 7.08%; under setting [5], 0.99%; under setting [6], 0.77%; under setting [7], 0.63%. The viability, T/C is 6.31% (second compound 0.00949 µM, first compound 0.00949 µM); 3.24% (second compound 0.00949 µM, first compound 0.03 µM); 1.18% (second compound 0.00949 µM, first compound 0.0949 µM); 1.31% (second compound 0.00949 µM, first compound 0.3 µM); 0.7% (second compound 0.00949 µM, first compound 0.949 µM); 0.6% (second compound 0.00949 µM, first compound 3 µM). Besides, the viability, T/C (second compound 0.03 µM, first compound 0.00949 µM) was 1.74%; the viability, T/C (second compound 0.03 µM, first compound 0.03 µM) is 1.47%; the viability, T/C (second compound 0.03 µM, first compound 0.0949 µM) is 1.35%; the viability, T/C (second compound 0.03 µM, first compound 0.3 µM) was 7.03%; the viability, T/C (second compound 0.03 µM, first compound 0.949 µM) is 0.62%; the viability, T/C (second compound 0.03 µM, first compound 3 µM) was 0.49%. Also, the viability, T/C is 1.62% (second compound 0.0949 µM, first compound 0.00949 µM); 1.4% (second compound 0.0949 µM, first compound 0.03 µM); 0.87% (second compound 0.0949 µM, first compound 0.0949 µM); 1.04% (second compound 0.0949 µM, first compound 0.3 µM); 0.66% (second compound 0.0949 µM, first compound 0.949 µM); 0.74% (second compound 0.0949 µM, first compound 3 µM). For the same compound, the viability, T/C is, setting by setting: (second compound 0.3 µM, first compound 0.00949 µM) 1.64%; (second compound 0.3 µM, first compound 0.03 µM) 1.48%; (second compound 0.3 µM, first compound 0.0949 µM) 1.05%; (second compound 0.3 µM, first compound 0.3 µM) 0.75%; (second compound 0.3 µM, first compound 0.949 µM) 0.47%; (second compound 0.3 µM, first compound 3 µM) 0.55%.

The values are drawn from PubChem BioAssay AID1845219 (Molecular Pharmacology Branch, DTP, NCI, 2023).
